Results: patent publication US20230226040A1, “COMBINATION THERAPY COMPRISING AN FGFR INHIBITOR AND A KRAS INHIBITOR” (Incyte Corporation, priority 2021, published 2023)
Values joined by “and” are separate entries in the source; they are usually repeats but may differ in a detail not shown here. Identical values can stand only once.

Columns and labels:
SW-837 = test: 5-day Cell Titer Glo combination matrix, Bliss score; type: cell-based; conditions: SW-837 (CRC, Epithelial); KRAS inhibitor in combination with pemigatinib; 5 days
Method: (§2) Cells were seeded in RPMI medium with 10% HI FBS at a density of 500 cells/well in Greiner, white, clear bottom, 384-well tissue culture treated plates containing 10×10 combination matrices of compound. Plates were incubated at 37° C., 5% CO2 for 5 days. On day 5, Cell Titer Glo reagent was added to the plates and ATP luminescence was detected using a Pherastar FSX reader. The synergy score for the combination effect was calculated using a Bliss score model where the Bliss score=Yab-(Ya+Yb−(YaYb))×100, where Ya and Yb are the monotherapies. Bliss scores >20 are strongly synergistic and a higher Bliss scores indicates a higher level of synergism.
(§3) Cells were seeded in RPMI medium with 10% HI FBS at a density of 500 cells/well in Greiner, white, clear bottom, 384-well tissue culture treated plates containing 10×10 combination matrices of compound. Plates were incubated at 37° C., 5% CO2 for 5 days. On day 5, Cell Titer Glo reagent was added to the plates and ATP luminescence was detected using a Pherastar FSX reader. The synergy score for the combination effect was calculated using a Bliss score model where the Bliss score=Yab−(Ya+Yb−(YaYb))×100, where Ya and Yb are the monotherapies. Bliss scores >20 are strongly synergistic and a higher Bliss scores indicates a higher level of synergism.

[1] = system: LU99 lung cancer xenograft; test: LU99 xenograft model, tumor growth inhibition; type: in vivo; conditions: NCr nude mice; AMG510 20 mg/kg, pemigatinib 0.3 mg/kg, alone or combined; oral QD, 30 days; last day of treatment
Method: The in vivo effect of combining the FGFR1 inhibitor pemigatinib plus the KRAS G12C inhibitor AMG510 was assessed in the LU99 lung cancer model (JCRB0080, JCRB) xenograft model (FIG. 3) in 6 to 8 week old female NCr nude mice (Taconic). Pemigatinib and AMG510 were suspended in 5% N,N-dimethyl acetamide (DMAC)+50 mM Citrate buffer (pH 3.0) in 0.5% methyl cellulose for oral administration. Briefly, mice were inoculated in the left flank with 1×10^7 LU99 cells re-suspended in a PBS and matrigel (Corning Life Sciences, Tewksbury, Mass) solution at 1:1. On Day 7, mice were randomized into 4 groups of 10 mice at approximate mean volume (˜212 mm^3). […] Tumor growth inhibition was calculated using the formula (1−(VT/VC))×100, where VT is the tumor volume of the treatment group on the last day of treatment, and Vc is the tumor volume of the control group on the last day of treatment. […] Statistics were determined using One-Way ANOVA.
Briefly, mice were inoculated in the left flank with 1×10^7LU99 cells re-suspended in a PBS and matrigel (Corning Life Sciences, Tewksbury, Mass) solution at 1:1. […] TGI was calculated using the formula (1−(VT/VC))×100, where VT is the tumor volume of the treatment group on the last day of treatment, and VC is the tumor volume of the control group on the last day of treatment. […]

H358 = test: 5-day Cell Titer Glo combination matrix, Bliss score; type: cell-based; conditions: H358 (Lung, Epithelial); KRAS inhibitor in combination with pemigatinib; 5 days
Method: as §2
(§4) Cells were seeded in RPMI medium with 10% HI FBS at a density of 500 cells/well in Greiner, white, clear bottom, 384-well tissue culture treated plates containing 10×10 combination matrices of compound. Plates were incubated at 37° C., 5% CO2 for 5 days. On day 5, Cell Titer Glo reagent was added to the plates and ATP luminescence was detected using a Pherastar FSX reader. Synergy score for the combination effect is calculated using a Bliss score model where the Bliss score=Yab−(Ya+Yb−(YaYb))×100, where Ya and Yb are the monotherapies. Bliss scores >20 are strongly synergistic and a higher Bliss scores indicates a higher level of synergism.
as §3

H1792 = test: as above; type: cell-based; conditions: H1792 (Lung, Mesenchymal); KRAS inhibitor in combination with pemigatinib; 5 days
Method: as §2, §4, §3

HCC-44 = test: as above; type: cell-based; conditions: HCC-44 (Lung, Mesenchymal); KRAS inhibitor in combination with pemigatinib; 5 days
Method: as §2, §3

[2] = system: MiaPaca2 KRAS G12C resistant clone 23; test: 5-day Cell Titer Glo viability and Bliss score; type: cell-based; conditions: 5-day CTG
Method: (§1) For G12C resistant clone generation, MiaPaca2 parent cells were cultured with increasing concentrations of AMG510 (up to 1μM) over time. The viable cells were re-fed fresh media containing AMG510 weekly. Once the AMG510 resistant cells were growing at normal rates in the presence of 1μM AMG510, they were cloned by limiting dilution. Eight clones were selected for continued passage and further experiments.

[3] = system: MiaPaca2 KRAS G12C resistant clone 7; test: 5-day Cell Titer Glo viability and Bliss score; type: cell-based; conditions: 5-day CTG
Method: as §1

[4] = system: MiaPaca2 KRAS G12C resistant clone 11; test: 5-day Cell Titer Glo viability and Bliss score; type: cell-based; conditions: CLONE 11, 5-day CTG
Method: as §1

[5] = system: MiaPaca2 KRAS G12C resistant clone 28; test: 5-day Cell Titer Glo viability and Bliss score; type: cell-based; conditions: 5-day CTG
Method: as §1

LU99 cells = test: siRNA FGFR knockdown plus KRAS G12C inhibitor, Cell Titer Glo proliferation; type: cell-based; conditions: 120 h
Method: Knockdown efficiency was assessed by Western blot and its effect was measured by cell proliferation inhibition.
The lyophilized siRNA pools or individuals (Dharmacon ON-TARGET plus siRNA from Horizon Discovery) were reconstituted by combining 1× siRNA buffer (200 μL) with lyophilized siRNA (20 nmol); or combining 1× siRNA buffer (100 μL) with lyophilized siRNA (10 nmol). Dharmafect Reagent 1 was prepared at a 1:200 dilution in 1X siRNA buffer. One tube of diluted reagent was prepared for each siRNA dilution. To each tube, the appropriate siRNA was added to Dharmafect Reagent 1 at a 1:400 dilution. The prepared siRNA reagent ([…]) was added to the appropriate number of wells on a 96-well clear bottom Greiner plate and incubated at room temperature for 30 min.
For plating in 96-well pates, 2000 LU99 cells per well in 100 μL of medium were prepared. The prepared cells (100 μL per well) were added to each well of the 96-well plate and incubated at 48 h.
Compound plates were prepared with a compound starting concentration of 5 mM in a 3-fold dilution. Following 48 h transfection incubation, the appropriate compounds were added to the 96-well plate at a final starting concentration of 5 μM in 3-fold dilution (11 point dose response curve). After addition of the compounds, the 96-well plates were incubated at 37° C. for 120 h. After this time, Cell Titer Glo reagent is reconstituted and 100 μL of reagent was added per well. The plates were tapped gently and luminescence was read on a Pherastar microplate reader.

SW-1573 = test: 5-day Cell Titer Glo combination matrix, Bliss score; type: cell-based; conditions: SW-1573 (Lung, Mesenchymal); KRAS inhibitor in combination with pemigatinib; 5 days
Method: as §2, §4, §3

pFRS2a [6] = test: Western blot of pFRS2a in LU99 cell lysate (90 hours treatment); type: cell-based; conditions: LU99 cells; 50 nM KRAS G12C inhibitor alone
Description: FGFR1 and downstream activation marker pFRS2a protein levels were examined in indicated cell lines, as well as markers for epithelial-like cells (E-cadherin) and mesenchymal-like cells (Vimentin).

Calu-1 = test: 5-day Cell Titer Glo combination matrix, Bliss score; type: cell-based; conditions: Calu-1 (Lung, Mesenchymal); KRAS inhibitor in combination with pemigatinib; 5 days
Method: as §2

pFRS2a [7] = test: Western blot of pFRS2a in LU99 cells (24 hours treatment, with or without rhFGF); type: cell-based; conditions: 100 nM KRAS G12C inhibitor, with or without rhFGF stimulation
Method: LU99 cells were treated with 100 nM of Compound 2, pemigatinib, Compound 1, or indication combination for 24 hours, and with or without lng/ml recombinant human FGF (rhFGF) before harvesting the lysate.
Cells were seeded in Corning 6-well tissue culture treated plates in RPMI medium with 10% FBS at 6×10^5 cells/well. After 48 hours, cells were or treated with indicated compounds for 24 hours at 37° C., 5% CO2. rhFGF—basic (R&D systems 233-FB) was added at 1 nG/ml for 15 minutes at the end of the experiment as indicated. The cells were washed with PBS and lysed with 1x lysis buffer (Cell Signaling #9803) with protease and phosphatase inhibitors. Twenty-five μg of total protein lysates was subjected to SDS-PAGE and immunoblot analysis using the following Cell Signaling antibodies: pERK (#4370) phospho-FRS2a (#3861) and beta-Actin (#12620).
Cells were seeded in Corning 6-well tissue culture treated plates in RPMI medium with 10% FBS at 6x10^5 cells/well. After 48 hours, cells were or treated with indicated compounds for 24 hours at 37° C., 5% CO2. rhFGF—basic (R&D systems 233-FB) was added at 1 nG/ml for 15 minutes at the end of the experiment as indicated. The cells were washed with PBS and lysed with 1× lysis buffer (Cell Signaling #9803) with protease and phosphatase inhibitors. […]

[8] = in the absence of FGFR1, FGFR2 or FGFR3

SMILES: C=CC(=O)N1CCN(c2nc(=O)n(-c3c(C)ccnc3C(C)C)c3nc(-c4c(O)cccc4F)c(F)cc23)[C@@H](C)C1 [AMG-510]
- Avg. Bliss Score (SW-837): −7.7
- TGI (tumor growth inhibition) [1]: 66%
- Avg. Bliss Score (H358): 3.7
- Avg. Bliss Score (H1792): 26.7
- Avg. Bliss Score (HCC-44): 4.4
- % viability, G12C i 111 nM ([2]; G12C i alone (Compound 1 arm)): 83.9%
- % viability, G12C i 111 nM ([2]; G12C i alone (Pemi arm)): 90.9%
- % viability, G12C i 111 nM ([3]; Average, G12C i alone (Compound 1 arm)): 77.6%
- % viability, G12C i 111 nM ([3]; Average, G12C i alone (Pemi arm)): 77.8%
- % viability, G12C i 111 nM ([3]; G12C i alone (Compound 1 arm), single experiments): 67.1% and 88%
- % viability, G12C i 111 nM ([3]; G12C i alone (Pemi arm), single experiments): 69.6% and 90% and 73.7%
- % viability, G12C i 111 nM ([4]; G12C i alone (Compound 1 arm)): 63%
- % viability, G12C i 111 nM ([4]; G12C i alone (Pemi arm)): 67%
- % viability, G12C i 111 nM ([5]; G12C i alone (Compound 1 arm)): 77.5%
- % viability, G12C i 111 nM ([5]; G12C i alone (Pemi arm)): 69.6%
- inhibition of LU99 cell proliferation after siRNA knockdown (LU99 cells; [8]): higher inhibition in proliferation
- inhibition of LU99 cell proliferation after siRNA knockdown (LU99 cells; in the absence of FGFR1 or FGFR4): higher inhibition in proliferation
- Avg. Bliss Score (SW-1573): 25.9
- protein level of pFRS2a (pFRS2a [6]): elevated the protein level of pFRS2a
- Avg. Bliss Score (Calu-1): 11.2

SMILES: COC/C=C/C(=O)N1CC[C@H](n2nnc3c(N4CC(C)(N(C)C)C4)nc4c(F)c(-c5ccc(F)c6cccnc56)c(C(F)(F)F)cc4c32)C[C@H]1CC#N [Compound 2, 2-((2S,4S)-4-(4-(3-(dimethylamino)-3-methylazetidin-1-yl)-6-fluoro-7-(5-fluoroquinolin-8-yl)-8-(trifluoromethyl)-1H-[1,2,3]triazolo[4,5-c]quinolin-1-yl)-1-((E)-4-methoxybut-2-enoyl)piperidin-2-yl)acetonitrile]
- pFRS2a signaling (pFRS2a [7]): elevated
- inhibition of LU99 cell proliferation after siRNA knockdown (LU99 cells; all FGFR isoforms knocked down, in particular in the absence of FGFR1 and FGFR2): higher inhibition in proliferation
- inhibition of LU99 cell proliferation after siRNA knockdown (LU99 cells; [8]): higher inhibition in proliferation
- protein level of pFRS2a (pFRS2a [6]): elevated the protein level of pFRS2a
